Molecular target: Calmodulin-1 (Homo sapiens, UniProt P0DP23)
Test: Fluorescence spectroscopy
Experimental: Experiments were conducted with HITACHI-4500 and Shimadzu RF-5301 fluorescence spectrophotometer.

A Kd of 0.07 µM was found for `O=S(=O)(Nc1ccc(NS(=O)(=O)c2cccc3ccccc23)cc1)c1cccc2ccccc12` [BN1] in this work.

A Kd of 0.01 µM was found for `O=S(=O)(Nc1cccc(NS(=O)(=O)c2cccc3ccccc23)c1)c1cccc2ccccc12` [BN2] in this work.

A Kd of 10 µM was found for `COC(=O)[C@@H](CC(=O)c1cccc(C(=O)C[C@@H](Cc2c[nH]c3ccccc23)C(=O)OC)c1)Cc1c[nH]c2ccccc12` [BT1] in this work.

A Kd of 9 µM was found for `COC(=O)[C@@H](CC(=O)Cc1ccc(/C=C/c2ccc(CC(=O)C[C@@H](Cc3c[nH]c4ccccc34)C(=O)OC)cc2)cc1)Cc1c[nH]c2ccccc12` [BT2] in this work.

Reference: BindingDB's records for doi:10.1016/j.chembiol.2004.11.007 (University of Sheffield, 2005)
